Results taken from patent US4446315A, “Adenosine 5'-triphosphate-4-carboxamide-ribofuranosylthiazole” (The United States of America as represented by the …, priority 1982, dated 1984).
Entries after “also recorded” stand apart in the source; their conditions may differ. Like-named read-outs stand apart in the source and are kept apart here.

What was measured:
P388 leukemic cells = assay: Cytotoxicity against P388 leukemic cells in culture; assay type: cell-based; details: Mus musculus, read-out: Cytotoxicity Against P388 Leukemic Cells in Culture IC50 (median inhibitory concentration)
[1] = target: bacterial IMP dehydrogenase; assay: Inhibition of bacterial IMP dehydrogenase; assay type: biochemical; details: chemically synthesized TAD; read-out: Ki against bacterial IMP dehydrogenase
[2] = Antitumor activity of the metabolite administered as such; details: compared with progenitor TR; initial experiments

NC(=O)c1csc([C@@H]2O[C@H](COP(=O)(O)OP(=O)(O)OC[C@H]3O[C@@H](n4cnc5c(N)ncnc54)[C@H](O)[C@@H]3O)[C@@H](O)[C@H]2O)n1 [TAD, adenosine 5'-(trihydrogen diphosphate) 5'→5'-ester with 4-carboxamide-2-β-D-ribofuranosylthiazole]
IC50 (P388 leukemic cells; P388, chemically synthesized TAD): 3.5 µM
IC50 (P388 leukemic cells; P388, enzymatically (biologically) synthesized TAD): 2.5 µM
Ki [1]: 3.4 µM
Antitumor activity [2]: active when administered as such; also recorded: superior to that of its progenitor
